The target in one assay is HiBiT tagged CK1α (Homo sapiens, UniProt P48729+Q96SW2). The experiment in a line: CK1α degradation assay (HiBiT assay). Format: cell-based. To be noted: 20 hours; for Dmax: HT-1080, HT-1080 cells; for DC50: concentration at 50% CK1α degradation. The procedure: (§1) CK1α and GSPT1 Degradation Assay (HiBiT Assay) The following is an example of an assay that can be used to determine the dose-dependent CK1α and GSPT1 degradation activities of test compounds in a human cell line such as HT-1080 ([…]). HT-1080 cells stably overexpressing wild-type CRBN, GSPT1A(1-138)/G575N mutant and HiBiT tagged CK1α or GSPT1 were seeded into 384-well plates (Cat #3764, Corning) pre-spotted with DMSO or test compounds. Increasing concentrations of test compounds (ranging from 3.162×10^-4 μM to 10 μM at a 3.16-fold increment) or DMSO were dispensed into an empty 384-well plate using an Echo Acoustic Liquid Handler (Beckman Coulter). About 10,000 cells in complete DMEM cell culture media were seeded per well. […] Luminescence was then measured with an EnVision plate reader (PerkinElmer) or a PHERAstar plate reader (BMG Labtech). All CK1α or GSPT1 degradation curves were processed using Collaborative Drug Discovery Vault softwares (Burlingame, CA., www.collaborativedrug.com). CK1α or GSPT1 levels in compound-treated wells were normalized to that of DMSO control and expressed as Percent of Control (PoC, y). […]
For orientation: With HiBiT, luminescence reflects the tagged protein that the partner subunit can reach.

Another assay addresses HiBiT tagged GSPT1 (Homo sapiens, UniProt P15170+Q96SW2). In words: GSPT1 degradation assay (HiBiT assay). Type of assay: cell-based. The following applies: 20 hours, maximum GSPT1 degradation; for Dmax: HT-1080, HT-1080 cells. On the procedure:
as §1

Molecules are shown by their SMILES.

The values below come from patent US12673936B2, “Isoindolinone compounds, and uses thereof” (HANGZHOU GLUBIO PHARMACEUTICAL CO., LTD., priority 2021, dated 2026).

Chain of HiBiT tagged CK1α (P48729 whole entry): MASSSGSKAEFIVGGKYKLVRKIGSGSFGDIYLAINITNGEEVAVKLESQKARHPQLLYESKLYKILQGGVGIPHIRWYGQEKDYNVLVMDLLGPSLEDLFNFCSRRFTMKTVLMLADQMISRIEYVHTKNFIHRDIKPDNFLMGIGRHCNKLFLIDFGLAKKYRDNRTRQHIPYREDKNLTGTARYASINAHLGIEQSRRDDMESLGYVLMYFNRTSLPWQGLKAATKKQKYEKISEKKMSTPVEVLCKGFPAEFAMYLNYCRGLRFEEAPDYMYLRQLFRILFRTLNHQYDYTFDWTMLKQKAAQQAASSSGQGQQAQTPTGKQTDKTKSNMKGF
Chain of HiBiT tagged CK1α (Q96SW2 whole entry): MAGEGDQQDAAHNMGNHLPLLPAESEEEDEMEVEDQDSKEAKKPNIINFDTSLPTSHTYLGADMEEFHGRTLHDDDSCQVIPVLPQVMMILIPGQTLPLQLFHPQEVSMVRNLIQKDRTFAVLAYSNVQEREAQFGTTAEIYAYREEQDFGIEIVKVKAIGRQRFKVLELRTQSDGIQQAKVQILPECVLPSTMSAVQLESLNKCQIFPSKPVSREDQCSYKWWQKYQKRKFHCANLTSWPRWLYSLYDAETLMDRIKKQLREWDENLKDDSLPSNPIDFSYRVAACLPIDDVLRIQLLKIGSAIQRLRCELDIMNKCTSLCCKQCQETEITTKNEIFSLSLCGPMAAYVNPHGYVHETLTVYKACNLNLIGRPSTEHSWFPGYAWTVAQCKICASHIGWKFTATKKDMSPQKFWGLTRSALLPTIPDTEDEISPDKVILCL
Chain of HiBiT tagged CK1α (Q16531 whole entry partner): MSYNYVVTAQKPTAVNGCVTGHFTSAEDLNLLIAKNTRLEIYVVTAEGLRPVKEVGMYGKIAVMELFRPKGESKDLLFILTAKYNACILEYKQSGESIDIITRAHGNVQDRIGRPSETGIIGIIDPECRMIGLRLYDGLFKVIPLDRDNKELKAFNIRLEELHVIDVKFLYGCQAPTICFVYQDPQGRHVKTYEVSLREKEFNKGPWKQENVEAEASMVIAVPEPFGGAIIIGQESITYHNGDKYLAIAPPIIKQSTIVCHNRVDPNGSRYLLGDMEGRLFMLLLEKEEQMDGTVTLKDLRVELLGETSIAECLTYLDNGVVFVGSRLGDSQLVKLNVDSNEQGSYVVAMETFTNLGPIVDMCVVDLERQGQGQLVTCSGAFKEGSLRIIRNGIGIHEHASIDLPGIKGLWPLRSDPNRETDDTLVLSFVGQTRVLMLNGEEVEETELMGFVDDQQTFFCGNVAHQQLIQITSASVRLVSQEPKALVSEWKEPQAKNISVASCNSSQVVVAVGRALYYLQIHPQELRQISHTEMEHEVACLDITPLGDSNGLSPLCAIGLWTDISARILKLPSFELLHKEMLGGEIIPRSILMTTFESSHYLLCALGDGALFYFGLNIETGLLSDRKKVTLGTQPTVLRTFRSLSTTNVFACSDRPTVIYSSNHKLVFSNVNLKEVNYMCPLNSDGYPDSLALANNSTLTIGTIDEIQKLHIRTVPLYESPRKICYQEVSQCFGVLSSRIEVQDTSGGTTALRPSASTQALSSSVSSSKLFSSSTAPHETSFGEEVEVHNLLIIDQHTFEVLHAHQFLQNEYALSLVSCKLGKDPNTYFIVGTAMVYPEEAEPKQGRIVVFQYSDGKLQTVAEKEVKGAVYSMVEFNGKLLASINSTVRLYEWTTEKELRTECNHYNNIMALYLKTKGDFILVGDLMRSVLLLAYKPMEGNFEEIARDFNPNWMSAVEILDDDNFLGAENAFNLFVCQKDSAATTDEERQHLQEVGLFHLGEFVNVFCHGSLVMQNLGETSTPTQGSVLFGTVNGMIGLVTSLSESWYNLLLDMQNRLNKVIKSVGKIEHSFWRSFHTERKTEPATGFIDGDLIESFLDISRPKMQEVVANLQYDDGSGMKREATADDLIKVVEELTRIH
Chain of HiBiT tagged GSPT1 (P15170 whole entry): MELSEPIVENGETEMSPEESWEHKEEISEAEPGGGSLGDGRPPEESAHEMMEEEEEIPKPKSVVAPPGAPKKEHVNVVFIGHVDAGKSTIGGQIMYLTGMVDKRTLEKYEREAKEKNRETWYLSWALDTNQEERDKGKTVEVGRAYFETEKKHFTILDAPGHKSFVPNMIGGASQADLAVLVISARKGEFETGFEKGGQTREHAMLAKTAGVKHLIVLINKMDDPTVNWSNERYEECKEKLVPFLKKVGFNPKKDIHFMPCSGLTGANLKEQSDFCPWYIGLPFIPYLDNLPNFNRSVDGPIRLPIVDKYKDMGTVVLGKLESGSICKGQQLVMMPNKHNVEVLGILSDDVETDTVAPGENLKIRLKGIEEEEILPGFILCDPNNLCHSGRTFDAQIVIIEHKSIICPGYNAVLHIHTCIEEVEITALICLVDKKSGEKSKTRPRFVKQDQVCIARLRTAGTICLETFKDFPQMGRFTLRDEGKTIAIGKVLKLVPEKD
Chain of HiBiT tagged GSPT1 (Q96SW2 whole entry): as the sequence (Q96SW2 whole entry) above
Chain of HiBiT tagged GSPT1 (Q16531 whole entry partner): as the sequence (Q16531 whole entry partner) above

By Dmax is commonly meant the largest share of the target that was removed. The DC50 is the midpoint of the concentration-degradation curve. Read a low DC50 as degradation at low concentration. Consider `O=C1CCC(N2Cc3cc(C(=O)N[C@H](c4ccc(F)cc4Cl)C4CC4)ccc3C2=O)C(=O)N1` (stereo in doubt) [Compound 13, N-((*S)-(2-chloro-4-fluorophenyl)(cyclopropyl)-yl)methyl)-2-(2,6-dioxopiperidin-3-yl)-1-oxoisoindoline-5-carboxamide], for which the Dmax was 65.9% on HiBiT tagged CK1α (maximum CK1α degradation) and 37% on HiBiT tagged GSPT1. For the same molecule, on HiBiT tagged CK1α (HT-1080 cells), half-maximal degradation (DC50) was put at 293 nM.
In the case of `O=C1CCC(N2Cc3cc(C(=O)N[C@H](c4c(F)cccc4F)C4CC4)ccc3C2=O)C(=O)N1` (stereo in doubt) [Compound 17, N-((*S)-cyclopropyl(2,6-difluorophenyl)methyl)-2-(2,6-dioxopiperidin-3-yl)-1-oxoisoindoline-5-carboxamide], the Dmax came to 68.1% on HiBiT tagged CK1α (maximum CK1α degradation) and 49.3% at HiBiT tagged GSPT1. The same molecule gave a DC50 on HiBiT tagged CK1α (HT-1080 cells) of 123 nM.
As to `O=C1CCC(N2Cc3cc(C(=O)N[C@H](c4ncccc4Cl)C4CCC4)ccc3C2=O)C(=O)N1` (stereo in doubt) [Compound 18, N-((*S)-(3-chloropyridin-2-yl)(cyclobutyl)methyl)-2-(2,6-dioxopiperidin-3-yl)-1-oxoisoindoline-5-carboxamide], the Dmax on HiBiT tagged CK1α (maximum CK1α degradation) was found to be 66%; on HiBiT tagged GSPT1, 58.5%. This molecule returned a DC50 on HiBiT tagged CK1α (HT-1080 cells) of 137 nM.
In the case of `CN1CCN(c2ccc([C@@H](NC(=O)c3ccc4c(c3)CN(C3CCC(=O)NC3=O)C4=O)C3CCC3)cc2)CC1` (stereo in doubt) [Compound 21, N-((*S)-cyclobutyl(4-(4-methylpiperazin-1-yl)phenyl)methyl)-2-(2,6-dioxopiperidin-3-yl)-1-oxoisoindoline-5-carboxamide], the Dmax was 60.6% on HiBiT tagged CK1α (maximum CK1α degradation) and 20.6% at HiBiT tagged GSPT1. The same molecule gave a DC50 at HiBiT tagged CK1α (HT-1080 cells) of 132 nM.
In the case of `O=C1CCC(N2Cc3cc(C(=O)N[C@H](c4ncccc4F)C4CCC4)ccc3C2=O)C(=O)N1` (stereo in doubt) [Compound 24, N-((*S)-cyclobutyl(3-fluoropyridin-2-yl)methyl)-2-(2,6-dioxopiperidin-3-yl)-1-oxoisoindoline-5-carboxamide], half-maximal degradation at HiBiT tagged CK1α (HT-1080 cells) (DC50) was put at 363 nM. The “HiBiT CK1α: Dmax” value on HiBiT tagged CK1α (HT-1080 cells, maximum CK1α degradation) came out at 63.2%. The “HiBiT GSPT1: Dmax” value at HiBiT tagged GSPT1 (HT-1080 cells) came out at 63.1%.
On to `O=C1CCC(N2Cc3cc(C(=O)N[C@@H](c4cccc(F)c4)C4CC4)ccc3C2=O)C(=O)N1` (stereo in doubt) [Compound 25, N-((*R)-cyclopropyl(3-fluorophenyl)methyl)-2-(2,6-dioxopiperidin-3-yl)-1-oxoisoindoline-5-carboxamide], for which the Dmax turned out to be 54.5% on HiBiT tagged CK1α (maximum CK1α degradation) and 48.4% on HiBiT tagged GSPT1. Also, at HiBiT tagged CK1α (HT-1080 cells), it took 1580 nM to reach half-maximal degradation (DC50).
For `O=C1CCC(N2Cc3cc(C(=O)N[C@H](c4cccc(F)c4)C4CC4)ccc3C2=O)C(=O)N1` (stereo in doubt) [Compound 26, N-((*S)-cyclopropyl(3-fluorophenyl)methyl)-2-(2,6-dioxopiperidin-3-yl)-1-oxoisoindoline-5-carboxamide], the Dmax at HiBiT tagged CK1α (maximum CK1α degradation) was found to be 58.4%; on HiBiT tagged GSPT1, 30.7%. The molecule further displayed a DC50 on HiBiT tagged CK1α (HT-1080 cells) of 417 nM.
For the molecule `O=C1CCC(N2Cc3cc(C(=O)N[C@@H](c4cccc(Cl)c4)C4CC4)ccc3C2=O)C(=O)N1` (stereo in doubt) [Compound 27, N-((*R)-(3-chlorophenyl)(cyclopropyl)methyl)-2-(2,6-dioxopiperidin-3-yl)-1-oxoisoindoline-5-carboxamide], the Dmax on HiBiT tagged CK1α (maximum CK1α degradation) worked out at 59.3%; on HiBiT tagged GSPT1, 40.3%. Half-maximal degradation at HiBiT tagged CK1α (HT-1080 cells) (DC50) was put at 345 nM.
Taken in the same sequence, the figures for `O=C1CCC(N2Cc3cc(C(=O)N[C@H](c4cccc(Cl)c4)C4CC4)ccc3C2=O)C(=O)N1` (stereo in doubt) [Compound 28, N-((*S)-(3-chlorophenyl)(cyclopropyl)methyl)-2-(2,6-dioxopiperidin-3-yl)-1-oxoisoindoline-5-carboxamide] were 60.1%, 70.8% and 1150 nM.
As for `Cc1cccc([C@H](NC(=O)c2ccc3c(c2)CN(C2CCC(=O)NC2=O)C3=O)C2CC2)c1` (stereo in doubt) [Compound 29, N-((*R)-cyclopropyl(m-tolyl)methyl)-2-(2,6-dioxopiperidin-3-yl)-1-oxoisoindoline-5-carboxamide], the Dmax at HiBiT tagged CK1α (maximum CK1α degradation) was found to be 58.8%; on HiBiT tagged GSPT1, 22%. On HiBiT tagged CK1α (HT-1080 cells), this molecule registered a DC50 of 553 nM.
With `Cc1cccc([C@@H](NC(=O)c2ccc3c(c2)CN(C2CCC(=O)NC2=O)C3=O)C2CC2)c1` (stereo in doubt) [Compound 30, N-((*S)-cyclopropyl(m-tolyl)methyl)-2-(2,6-dioxopiperidin-3-yl)-1-oxoisoindoline-5-carboxamide], the values for the Dmax on HiBiT tagged CK1α (maximum CK1α degradation) and at HiBiT tagged GSPT1 were 47.9% and 62.1%, respectively.
For the molecule `COc1cccc([C@H](NC(=O)c2ccc3c(c2)CN(C2CCC(=O)NC2=O)C3=O)C2CC2)c1` (stereo in doubt) [Compound 31, N-((*R)-cyclopropyl(3-methoxyphenyl)methyl)-2-(2,6-dioxopiperidin-3-yl)-1-oxoisoindoline-5-carboxamide], the Dmax at HiBiT tagged CK1α (maximum CK1α degradation) amounted to 48.1%; at HiBiT tagged GSPT1, 60%.
Consider `COc1cccc([C@@H](NC(=O)c2ccc3c(c2)CN(C2CCC(=O)NC2=O)C3=O)C2CC2)c1` (stereo in doubt) [Compound 32, N-((*S)-cyclopropyl(3-methoxyphenyl)methyl)-2-(2,6-dioxopiperidin-3-yl)-1-oxoisoindoline-5-carboxamide], for which the Dmax at HiBiT tagged CK1α (maximum CK1α degradation) was found to be 59.3%; on HiBiT tagged GSPT1 it was 36.3%. Further, it took 198 nM to reach half-maximal degradation at HiBiT tagged CK1α (HT-1080 cells) (DC50).
For the molecule `O=C1CCC(N2Cc3cc(C(=O)N[C@@H](c4cccc(C(F)(F)F)c4)C4CC4)ccc3C2=O)C(=O)N1` (stereo in doubt) [Compound 33, N-((*R)-cyclopropyl(3-(trifluoromethyl)phenyl)methyl)-2-(2,6-dioxopiperidin-3-yl)-1-oxoisoindoline-5-carboxamide], the maximal degradation (Dmax) on HiBiT tagged CK1α (maximum CK1α degradation) was 56.3%; at HiBiT tagged GSPT1 it was 66.3%. For the same molecule, on HiBiT tagged CK1α (HT-1080 cells), half-maximal degradation (DC50) was put at 1300 nM.
Consider `O=C1CCC(N2Cc3cc(C(=O)N[C@H](c4cccc(C(F)(F)F)c4)C4CC4)ccc3C2=O)C(=O)N1` (stereo in doubt) [Compound 34, N-((*S)-cyclopropyl(3-(trifluoromethyl)phenyl)methyl)-2-(2,6-dioxopiperidin-3-yl)-1-oxoisoindoline-5-carboxamide], for which the Dmax at HiBiT tagged CK1α (maximum CK1α degradation) came out at 59.5%; at HiBiT tagged GSPT1, 25.8%. This molecule registered a DC50 on HiBiT tagged CK1α (HT-1080 cells) of 446 nM.
Consider `O=C1CCC(N2Cc3cc(C(=O)N[C@H](c4ccc(F)cc4)C4CCOCC4)ccc3C2=O)C(=O)N1` (stereo in doubt) [Compound 38, 2-(2,6-dioxopiperidin-3-yl)-N-((*S)-(4-fluorophenyl)(tetrahydro-2H-pyran-4-yl)methyl)-1-oxoisoindoline-5-carboxamide], for which the Dmax stood at 64.1% at HiBiT tagged CK1α (maximum CK1α degradation) and 19.9% at HiBiT tagged GSPT1. It took 218 nM to reach half-maximal degradation on HiBiT tagged CK1α (HT-1080 cells) (DC50).
Regarding `Cc1ccccc1[C@@H](NC(=O)c1ccc2c(c1)CN(C1CCC(=O)NC1=O)C2=O)C1CC1` (stereo in doubt) [Compound 39, N-((*S)-cyclopropyl(o-tolyl)methyl)-2-(2,6-dioxopiperidin-3-yl)-1-oxoisoindoline-5-carboxamide], the results for the Dmax at HiBiT tagged CK1α (maximum CK1α degradation) and at HiBiT tagged GSPT1 were 61% and 32.5%, respectively. This molecule also registered a DC50 at HiBiT tagged CK1α (HT-1080 cells) of 363 nM.
As to `O=C1CCC(N2Cc3cc(C(=O)N[C@H](c4ccc(F)cc4)C4COC4)ccc3C2=O)C(=O)N1` (stereo in doubt) [Compound 58, 2-(2,6-dioxo-3-piperidyl)-N-[(*S)-(4-fluorophenyl)-(oxetan-3-yl)methyl]-1-oxo-isoindoline-5-carboxamide], the maximal degradation (Dmax) at HiBiT tagged CK1α (maximum CK1α degradation) is 49.7%; at HiBiT tagged GSPT1, 16.5%.
As to `O=C1CCC(N2Cc3cc(C(=O)N[C@@H](c4ccc(F)cc4)C4COC4)ccc3C2=O)C(=O)N1` (stereo in doubt) [Compound 59, 2-(2,6-dioxopiperidin-3-yl)-N-((*R)-(4-fluorophenyl)(oxetan-3-yl)methyl)-1-oxoisoindoline-5-carboxamide], the results for the Dmax on HiBiT tagged CK1α (maximum CK1α degradation) and on HiBiT tagged GSPT1 were 32.2% and 7.93%, respectively.
In the case of `N#Cc1ccccc1[C@@H](NC(=O)c1ccc2c(c1)CN(C1CCC(=O)NC1=O)C2=O)C1CC1` (stereo in doubt) [Compound 64, N-((*S)-(2-cyanophenyl)(cyclopropyl)methyl)-2-(2,6-dioxopiperidin-3-yl)-1-oxoisoindoline-5-carboxamide], the figures for the Dmax on HiBiT tagged CK1α (maximum CK1α degradation) and at HiBiT tagged GSPT1 were 66.7% and 27.9%, respectively. At HiBiT tagged CK1α (HT-1080 cells), half-maximal degradation (DC50) was put at 162 nM.
With `O=C1CCC(N2Cc3cc(C(=O)N[C@@H](c4c(F)cccc4F)C4CCC4)ccc3C2=O)C(=O)N1` (stereo in doubt) [Compound 66, N-((*R)-cyclobutyl(2,6-difluorophenyl)methyl)-2-(2,6-dioxopiperidin-3-yl)-1-oxoisoindoline-5-carboxamide], the Dmax on HiBiT tagged CK1α (maximum CK1α degradation) amounted to 67.9%; at HiBiT tagged GSPT1, 55.3%. For the same molecule, the DC50 at HiBiT tagged CK1α (HT-1080 cells) came to 118 nM.
`O=C1CCC(N2Cc3cc(C(=O)N[C@H](c4c(F)cccc4F)C4CCC4)ccc3C2=O)C(=O)N1` (stereo in doubt) [Compound 67, N-((*S)-cyclobutyl(2,6-difluorophenyl)methyl)-2-(2,6-dioxopiperidin-3-yl)-1-oxoisoindoline-5-carboxamide]: the greatest degradation seen (Dmax) on HiBiT tagged CK1α (maximum CK1α degradation) worked out at 76.4%; on HiBiT tagged GSPT1 it was 31.7%. The DC50 on HiBiT tagged CK1α (HT-1080 cells) is 40 nM.
